Source: patent US20230285374A1, “THERAPEUTIC METHODS USING VADADUSTAT” (Akebia Therapeutics, Inc., priority 2019, published 2023)

System: subjects with anemia and Hemodialysis-Dependent Chronic Kidney Disease (HD-CKD) converting from ESA
Experiment: Phase 3 randomized, double-blinded, active-controlled study in Hemodialysis-Dependent CKD (HD-CKD), Compound 1 vs darbepoetin alfa, 52 weeks
Format: in vivo, human
Excerpt: This example describes a phase 3 randomized, double-blinded, active-controlled study to evaluate the efficacy and safety of oral Compound 1 for the maintenance treatment of anemia in subjects with Hemodialysis-Dependent Chronic Kidney Disease (HD-CKD) in approximately 300 subjects. Efficacy and safety of Compound 1 was compared with darbepoetin alfa for the maintenance treatment of anemia in subjects with DD-CKD after conversion from current ESA therapy.
Subjects deemed eligible for into the study included those who: • Be at least 20 years of age, inclusive; • Have diagnosis of Chronic Kidney Disease; • Be receiving hemodialysis or hemodialysis filtration at least three (3) times per week for ≥12 weeks before screening; • Be receiving the same formulation of ESA using the same administration route and the same dose interval (the dose interval should be the one described in the package insert for the ESA formulation) within 8 weeks prior to the first day of the screening period, using the dosages described below: Epoetin alfa and epoetin beta and kappa: ≥9,000 IU every weeks Darbepoetin alfa: ≥60 μg every weeks Epoetin beta pegol: ≥250 μg every 4 weeks • Have a mean of the most recent Hb levels at screening in the range of ≥9.5 to ≥12.0 g/dL. • Have a difference of <1.5 g/dL in Hb for the latest two tests in the screening period; • Have serum ferritin values of ≥100 ng/mL or transferrin saturation of ≥20% during the screening period; and • Have folic acid and vitamin B12 values above standard minimum values during the screening period.
Subjects deemed ineligible for inclusion in the study included those who: • Have anemia due to a cause other than CKD; • Have active bleeding or blood loss; • Have received a red blood cell transfusion; • Have uncontrolled hypertension; • Have active ocular fundus disease or cannot undergo an ocular fundus examination; • Have been diagnosed with cardiovascular disease, malignancy, or hemisiderosis;
Average Hb level at weeks 20 and 24 of the treatment period.
Hb level at each treatment visit; and
The proportion of patients within the target Hb range (above: ≥12.0 g/dL; within: 10.0-12.0 g/dL; below: <10.0 g/dL).
Safety endpoints for this study were defined as follows: • Adverse events (AEs); • Adverse drug reactions; and
Other endpoints for this study were defined as follows: • Iron-related parameters: serum ferritin, transferrin saturation (TSAT), total iron-binding capacity (TIBC), hepcidin, serum iron, and monthly dose of iron by any route of administration (oral and intravenous); and • Red blood cell indices.
Noninferiority: Compound 1 was considered noninferior to Darbepoetin alfa if the 95% confidence interval (CI) lower limit for the difference between Compound 1 and Darbepoetin alfa in the Least Squares (LS) Mean of the average Hb at weeks 20 and 24 was more than or equal to the predefined noninferiority margin of −0.75 g/dL. Difference in LS Mean refers to mixed-model repeated measures (MMRM) with an unstructured covariance matrix within patients.
Subjects were randomized 1:1 to either • Compound 1 with an initial dose of 300 mg/once daily and adjusted to 150-600 mg/once daily; or • Darbepoetin alfa (IV) initial dose is as follows:
The aim is to maintain a Hb level of 10.0-12.0 g/dL throughout the study.
Dose Adjustment Algorithm: • Increases in the dose were not allowed to occur more frequently than once every 4 weeks. Decreases in dose were allowed to occur more frequently. Frequent dose adjustments were avoided. • If the Hb rose rapidly, the dose was reduced. • If the Hb fell below 10.0 g/dL, the dose was increased. • If the Hb level exceeded 12.0 g/dL, the dose was reduced.
All subjects start with an initial dose of 300 mg/day at baseline visit. Dose levels of Compound 1 include 150, 300, 450, and 600 mg. Each subject took his/her first dose of study medication at the investigative site at the baseline visit. Thereafter, study medication was taken once daily on an outpatient basis. […]

[1] = week 52 (LOCF) compared to baseline

O=C(O)CNC(=O)c1ncc(-c2cccc(Cl)c2)cc1O [Compound 1, Vadadustat]
Deaths due to AEs (52 weeks): 2 (1.2) n (%) | deaths reported (52 weeks, assessed as not related to study drug): two | LSMean of average Hb, weeks 20 and 24 (HD-CKD patients): 10.61 g/dL | mean Hb level at week 52 (HD-CKD patients): 10.39 g/dL | Difference (VDT-DA) in LSMean of average Hb, weeks 20 and 24 (HD-CKD patients, noninferiority margin −0.75 g/dL): -0.05 g/dL | proportion of patients with Hb levels within the target range of 10.0-12.0 g/dL (baseline): 81.5% | mean MCHC level, change (baseline to week 52): significantly increased | mean MCH level, change (baseline to week 52 (LOCF)): significantly increased | mean MCV level, change (baseline to week 52 (LOCF)): significantly increased | mean RDW, change (baseline to week 52 (LOCF)): significantly decreased | mean hepcidin level, change (baseline to week 52 (LOCF)): significantly decreased | mean total iron-binding capacity (TIBC), change (baseline to week 52 (LOCF)): significantly increased | LSMean Hb levels at week 52, subgroup analysis by patient background (dose adjustment 150-600 mg/day, target range 10.0-12.0 g/dL): maintained within the target range of 10.0-12.0 g/dL irrespective of the patient backgrounds | Adverse drug reaction (human, in vivo, 52 weeks): 18 (11.1) n (%) | Cardiovascular event, cardiac failure (AE of special interest) (human, in vivo, 52 weeks): 13 (8.0) n (%) | Diarrhea (human, in vivo, 52 weeks): 25 (15.4) n (%) | Discontinuation due to AEs (human, in vivo, 52 weeks): 16 (9.9) n (%) | Dose reduction or interruption of study drug due to AEs (human, in vivo, 52 weeks): 13 (8.0) n (%) | Hyperkalemia (AE of special interest) (human, in vivo, 52 weeks): 1 (0.6) n (%) | Malignancy (AE of special interest) (human, in vivo, 52 weeks): 7 (4.3) n (%) | Nasopharyngitis (human, in vivo, 52 weeks): 74 (45.7) n (%) | Pulmonary hypertension (AE of special interest) (human, in vivo, 52 weeks): 0 (0.0) n (%) | Retinal disorder (AE of special interest) (human, in vivo, 52 weeks): 21 (13.0) n (%) | Retinal hemorrhage (human, in vivo, 52 weeks): 9.9% | Serious AEs (human, in vivo, 52 weeks): 41 (25.3) n (%) | Serious adverse drug reaction (human, in vivo, 52 weeks): 0 (0.0) n (%) | Shunt stenosis (human, in vivo, 52 weeks): 23 (14.2) n (%) | Subjects with ≥ 1 AE (human, in vivo, 52 weeks): 154 (95.1) n (%) | diarrhea (human, in vivo, 52 weeks): 15.4% | incidence of AEs (human, in vivo, 52 weeks): 95.1% | incidence of serious AEs (human, in vivo, 52 weeks): 25.3% | nasopharyngitis (human, in vivo, 52 weeks): 45.7% | shunt stenosis (human, in vivo, 52 weeks): 14.2% | patients with a rapid rise in Hb levels (>2 g/dL/4 weeks) (in vivo): No patients | proportion of patients with an Hb excursion of ≥12 g/dL (in vivo): 25.3% | proportion of patients with an Hb excursion of ≥13 g/dL (in vivo): 3.7% | proportion of patients with Hb levels within the target range of 10.0-12.0 g/dL (week 24): 75.4% | proportion of patients with Hb levels within the target range of 10.0-12.0 g/dL (week 52): 75.7% | TSAT, change [1]: no significant differences | serum ferritin, change [1]: no significant differences | patients maintained within the target Hb range (weeks 24 and 52, dose adjusted per algorithm): approximately 80%
